Laboratory results as given in US11559527B2 (priority 2017, dated 2023).

Legend:
E-cadherin = assay: Western blotting (immunoblot); type: cell-based, Human; settings: MCF7 cells after mDIVI-1 treatment
Protocol: Breast cancer stem cells can exist in distinct states, an mesenchymal-like state and an epithelial-like state, being the first one characterized for its expression of CD24^−/CD44^+, with an mesenchymal-like gene-expression profile and primarily quiescent.
At the end of the treatment, cells in suspension were spun down and lysed and attached cells were directly lysed in RIPA lysis buffer (R0278, Sigma) containing proteinase inhibitors (05 892 970 001, Roche) and kept at 4° C. for 20 minutes with rotation. Lysates were cleared by centrifugation for 10 minutes at 10,000×g and supernatants were collected. Equal amounts of protein lysate, as determined by using the BCA protein assay kit (23225, Pierce) were diluted in SDS sample buffer and dry-boiled for 5 minutes before being separated by SDS-PAGE using 4-20% gels (456-1094, Biorad). Samples were then blotted onto nitrocellulose membranes (170-4159, Biorad), blocked in 5% milk in TBS-Tween 20 (P9416, Sigma) for 1 hour and probed with antibodies against E-cadherin (ab8995, Abcam) or β-actin (a2228, Sigma). Bound antibodies were detected using a horseradish peroxidase-conjugated secondary antibody (ab6789 and ab6721, Abcam) and signal was obtained using Supersignal West Pico chemiluminiscent substrate (34087, ThermoScientific). Pictures were taken in a ChemiDoc XRS with Image Lab Software (BioRad).

A375 melanoma cells = assay: Tumorsphere formation assay, A375; type: cell-based
Protocol: One of the gold standard techniques for the study and identification of CSCs is the sphere formation assay, an in vitro culture system that enriches for CSCs. Under these anchorage-independent culture conditions, CSCs preferentially form the so-called tumorspheres, whereas more differentiated cells die rapidly.
TUMORSPHERE FORMATION ASSAY: A single cell suspension was prepared using enzymatic (1× Trypsin-EDTA, T3924, Sigma Aldrich), and manual disaggregation (25 gauge needle). […] After 5 days of culture in a humidified incubator at 37° C., tumorspheres bigger than 50 μm were counted using an eye piece graticule.

MCF7 cells [1] = assay: Mitochondrial staining with Mitotracker Deep Red (microscopy); type: cell-based, Human; settings: 10 μM, 2- and 5-day treatment
Text: In order to assess whether the inhibition of DRP1 was actually being translated into a reduction in mitochondrial fission, the inventors stained the mitochondria of MCF7 cells with Mitotracker Deep Red, which is a marker of mitochondrial mass. […] The original images are black background with shades of red over the cells, whereas the images in FIG. 3 have been color-inverted and generated in grey scale. Mitochondrial mass was also quantified by flow cytometry. FIGS. 4A-4C show results of mitochondrial mass quantification. In FIG. 4A, Mitotracker Deep Red mean intensity relative to vehicle intensity is shown for 2-day and 5-day treatments.
MITOCHONDRIAL STAINING: One hundred thousand MCF7 cells were seeded onto coverslips in 12-well plates. When cells were attached, mDIVI-1 and vehicle treatments were performed in triplicate. After 2 days and 5 days, mitochondria were labeled by incubating cells for 15 min at 37° C. with 25 nM of MitoTracker DeepRed (M22426, Invitrogen) diluted in PBS (D8662, Sigma). Then, cells were washed with PBS, fixed in 2% paraformaldehyde (28908, Thermo Scientific) in PBS for 30 minutes at room temperature and mounted with ProLong® Gold Antifade Mountant reagent with DAPI (P36935, Invitrogen, Inc.). […]

Wnt signaling = assay: Luciferase reporter assay MCF7-GFP-TCF/LEF(luc); type: cell-based, Human; settings: 50 μM, 2 and 5 days
Text: Mitochondrial fusion and fission may also have an impact in signaling pathways that regulate stem cell proliferation and survival. […] A range of reporter MCF7-GFP cell lines were generated, including MCF7-GFP-GLI(luc), MCF7-GFP-Rbp/Jk(luc), MCF7-GFP-SMAD(luc) and MCF7-GFP-TCF/LEF(luc), to assess Hedgehog signaling, Notch signaling, TGFβ signaling, and Wnt signaling, respectively. […] The data is shown in the four data plots in FIG. 9.
LUCIFERASE ASSAY: The Cignal Lenti reporter assay (luc) was used to monitor the activity of several signalling pathways in MCF7-GFP cells as explained previously. Luciferase Assay System (E1501, Promega) was performed according to manufacturer's instructions. 1×10^4 MCF7 […] were seeded in black-walled 96 well plates. When cells were attached, drug treatments were added for 18, 48 hours and 5 days. After treatment, Luciferase Assay was performed according to manufacturer's instructions and light signal was acquired in the Xenogen VivoVision IVIS Lumina. Results were normalized by SRB staining of cells grown in 96-well plates in parallel.
SULFORHODAMINE B (SRB) ASSAY: SRB (S9012, Sigma) measures total biomass by staining cellular proteins. […] Absorbance was spectrophotometrically measured at 562 nm in a FluoStar Omega plate reader (BMG Labtech). […]

MCF7 cells [2] = assay: Mitochondrial superoxide (MitoSOX, flow cytometry); type: cell-based, Human; settings: both concentrations of mDIVI-1, compared to vehicle
Text: Inhibition of the mitochondrial fission impacts on other mitochondrial processes, such as mitochondrial metabolism and general and mitochondrial oxidative stress. To confirm, MCF7 cells were stained with MitoSOX and CM-H2DCFDA, and mitochondrial superoxide and total ROS were quantified by flow cytometry. […] Whereas the increase in general ROS goes in line with the increase in mitochondrial content, the boost in the levels of mitochondrial superoxide in mDIV1-treated cells is actually bigger than the observed increased mitochondrial content.
LEVELS OF REACTIVE OXYGEN SPECIES AND MITOCHONDRIAL SUPEROXIDE: For both assays, 2×10^5 MCF7 cells were seeded in 35 mm plates. […] Reactive oxygen species (ROS) production was measured using CM-H2DCFDA (C6827, Invitrogen). Briefly, cells were incubated for 20 minutes at 37° C. with 1 μM CM-H2DCFDA diluted in PBS and then placed in complete media for 20 minutes at 37° C. in the dark, to render the dye fluorescent, according to the manufacturer. Mitochondrial superoxide was measured using MitoSOX Red Mitochondrial Superoxide Indicator (M36008, ThermoFisher Scientific). […] ROS signal and MitoSOX signal was quantified as mean fluorescent intensity of the viable cell population in a Fortessa flow cytometer (BD Bioscience). Results were analysed using FlowJo software.

## COc1cc(-n2c(S)nc3ccccc3c2=O)c(Cl)cc1Cl [mDIVI-1, 3-(2,4-Dichloro-5-methoxyphenyl)-2-sulfanyl-4(3H)-quinazolinone]
E-cadherin
  expression of E-cadherin: reduction
A375 melanoma cells; A375, 10 μM
  decrease of tumorsphere forming capacity: over 35%
A375 melanoma cells; A375, 50 μM
  decrease of tumorsphere forming capacity: over 90%
MCF7 cells [1]
  mitochondrial morphology: more interconnected mitochondria
Wnt signaling
  Wnt/TCF pathway luciferase activity: inhibition
MCF7 cells [2]
  mitochondrial superoxide production (MitoSOX): significantly increased
